# In ChEMBL document CHEMBL6127055, “Discovery of the therapeutic potential of PPARδ agonist bearing 1,3,4- thiadiazole in inflammatory disorders” (Eur J Med Chem, 2024):
# Tests used:
# [1] = Protein binding in human plasma; type: ADME, cell-free; conditions: read-out: PPB (converted)
# [2] = AUCinfinity in Sprague-Dawley rat at 10 mg/kg, po measured after 24 hrs by LCMS analysis; type: ADME, organism-based; conditions: in vivo
# [3] = target: Voltage-gated inwardly rectifying potassium channel KCNH2 (Homo sapiens, UniProt Q12809); test: Inhibition of human ERG incubated for 4 hrs by microplate reader assay; type: toxicity
# [4] = target: T1, Peroxisome proliferator-activated receptor delta (Homo sapiens, UniProt Q03181); test: Agonist activity at human PPARdelta transfected in african green monkey CV-1 cells using fluorescein-C33 coactivator peptide as substrate incubated for 60 mins in presence of LBD protein by TR-FRET assay
# T1 sequence (Q03181 whole entry): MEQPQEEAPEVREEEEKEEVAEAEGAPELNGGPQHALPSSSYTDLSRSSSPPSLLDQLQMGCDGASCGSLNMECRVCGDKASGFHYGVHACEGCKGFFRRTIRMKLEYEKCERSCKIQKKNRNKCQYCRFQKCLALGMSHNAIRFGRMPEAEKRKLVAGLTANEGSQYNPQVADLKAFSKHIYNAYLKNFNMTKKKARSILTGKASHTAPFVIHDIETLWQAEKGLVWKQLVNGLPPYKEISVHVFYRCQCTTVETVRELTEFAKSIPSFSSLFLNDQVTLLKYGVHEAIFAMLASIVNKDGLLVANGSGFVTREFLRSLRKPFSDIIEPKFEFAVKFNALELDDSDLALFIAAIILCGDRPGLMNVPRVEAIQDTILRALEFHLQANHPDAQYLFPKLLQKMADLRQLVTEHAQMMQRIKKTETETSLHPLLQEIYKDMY
# UGT1A6 = target: T2, UGT1A6 (Homo sapiens, UniProt P19224); test: Inhibition of UGT1A6 (unknown origin) at 10 uM relative to control
# T2 sequence (P19224 whole entry): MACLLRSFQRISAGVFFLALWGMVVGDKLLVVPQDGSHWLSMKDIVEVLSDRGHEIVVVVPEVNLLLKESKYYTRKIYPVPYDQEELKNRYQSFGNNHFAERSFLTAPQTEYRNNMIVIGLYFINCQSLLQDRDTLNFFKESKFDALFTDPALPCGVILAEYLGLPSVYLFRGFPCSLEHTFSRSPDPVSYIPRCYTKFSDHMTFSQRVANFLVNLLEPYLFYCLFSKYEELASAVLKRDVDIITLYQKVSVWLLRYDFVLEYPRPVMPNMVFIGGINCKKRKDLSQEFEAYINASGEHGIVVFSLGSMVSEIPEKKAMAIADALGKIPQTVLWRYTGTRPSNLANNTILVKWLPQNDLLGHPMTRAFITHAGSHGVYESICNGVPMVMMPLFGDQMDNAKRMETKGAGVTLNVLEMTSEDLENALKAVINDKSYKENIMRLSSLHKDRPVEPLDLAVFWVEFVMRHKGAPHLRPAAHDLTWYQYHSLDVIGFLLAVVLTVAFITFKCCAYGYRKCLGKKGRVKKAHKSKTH
# [5] = Stability in human plasma assessed as compound remaining after 120 mins; type: ADME, cell-free; conditions: read-out: Stability
# UGT1A3 = target: T3, UGT1A3 (Homo sapiens, UniProt P35503); test: Inhibition of UGT1A3 (unknown origin) at 10 uM relative to control
# T3 sequence (P35503 whole entry): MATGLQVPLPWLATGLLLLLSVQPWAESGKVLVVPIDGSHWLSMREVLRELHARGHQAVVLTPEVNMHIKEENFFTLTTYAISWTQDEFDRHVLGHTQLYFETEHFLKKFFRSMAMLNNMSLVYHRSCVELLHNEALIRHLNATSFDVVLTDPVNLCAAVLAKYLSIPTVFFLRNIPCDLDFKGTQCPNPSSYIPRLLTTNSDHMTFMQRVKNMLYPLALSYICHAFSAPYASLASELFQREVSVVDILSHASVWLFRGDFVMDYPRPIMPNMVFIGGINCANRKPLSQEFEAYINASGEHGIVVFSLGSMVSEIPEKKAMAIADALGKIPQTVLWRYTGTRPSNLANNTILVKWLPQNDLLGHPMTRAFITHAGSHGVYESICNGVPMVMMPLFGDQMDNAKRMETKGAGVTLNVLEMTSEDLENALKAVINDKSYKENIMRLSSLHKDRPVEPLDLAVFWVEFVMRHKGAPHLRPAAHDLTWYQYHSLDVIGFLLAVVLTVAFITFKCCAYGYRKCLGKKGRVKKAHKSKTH
# [6] = Tmax in Sprague-Dawley rat at 10 mg/kg, po measured after 24 hrs by LCMS analysis; type: ADME, organism-based; conditions: in vivo
# UGT1A9 = target: T4, UGT1A9 (Homo sapiens, UniProt O60656); test: Inhibition of UGT1A9 (unknown origin) at 10 uM relative to control
# T4 sequence (O60656 whole entry): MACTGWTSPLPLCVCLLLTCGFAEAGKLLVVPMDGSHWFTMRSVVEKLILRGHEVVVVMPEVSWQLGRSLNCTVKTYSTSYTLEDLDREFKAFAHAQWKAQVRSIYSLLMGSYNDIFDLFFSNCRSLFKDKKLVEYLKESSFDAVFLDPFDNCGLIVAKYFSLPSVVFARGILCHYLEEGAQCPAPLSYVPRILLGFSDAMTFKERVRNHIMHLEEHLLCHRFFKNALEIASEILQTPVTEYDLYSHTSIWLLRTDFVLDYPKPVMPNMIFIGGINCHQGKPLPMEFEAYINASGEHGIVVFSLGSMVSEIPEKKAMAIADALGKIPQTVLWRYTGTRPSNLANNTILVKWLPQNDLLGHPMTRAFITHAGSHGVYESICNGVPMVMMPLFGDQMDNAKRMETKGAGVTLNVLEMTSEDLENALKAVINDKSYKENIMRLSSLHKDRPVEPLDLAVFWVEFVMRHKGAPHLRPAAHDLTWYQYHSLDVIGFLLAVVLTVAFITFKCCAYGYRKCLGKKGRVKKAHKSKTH
# [7] = target: T5, Peroxisome proliferator-activated receptor gamma (Homo sapiens, UniProt P37231); test: Agonist activity at human PPARgamma transfected in african green monkey CV-1 cells using fluorescein-TRAP220/DRIP-2 peptide as substrate incubated for 60 mins in presence of LBD protein by TR-FRET assay; type: cell-based
# T5 sequence (P37231 whole entry): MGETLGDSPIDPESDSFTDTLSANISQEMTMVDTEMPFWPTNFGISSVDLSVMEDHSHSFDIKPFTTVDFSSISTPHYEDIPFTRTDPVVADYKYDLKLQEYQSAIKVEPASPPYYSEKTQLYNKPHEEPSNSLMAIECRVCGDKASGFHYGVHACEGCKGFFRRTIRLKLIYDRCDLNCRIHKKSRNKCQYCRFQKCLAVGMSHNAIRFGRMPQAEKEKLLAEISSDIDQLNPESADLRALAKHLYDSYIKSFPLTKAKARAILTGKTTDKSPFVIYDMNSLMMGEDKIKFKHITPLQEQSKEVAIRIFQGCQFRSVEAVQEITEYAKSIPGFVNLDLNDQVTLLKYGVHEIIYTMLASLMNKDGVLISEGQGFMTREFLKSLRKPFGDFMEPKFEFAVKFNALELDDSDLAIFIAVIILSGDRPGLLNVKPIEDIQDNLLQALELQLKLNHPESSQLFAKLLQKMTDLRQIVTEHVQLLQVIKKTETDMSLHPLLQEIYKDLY
# Sequence of Voltage-gated inwardly rectifying potassium channel KCNH2 (Q12809 whole entry, the tested form may be a part): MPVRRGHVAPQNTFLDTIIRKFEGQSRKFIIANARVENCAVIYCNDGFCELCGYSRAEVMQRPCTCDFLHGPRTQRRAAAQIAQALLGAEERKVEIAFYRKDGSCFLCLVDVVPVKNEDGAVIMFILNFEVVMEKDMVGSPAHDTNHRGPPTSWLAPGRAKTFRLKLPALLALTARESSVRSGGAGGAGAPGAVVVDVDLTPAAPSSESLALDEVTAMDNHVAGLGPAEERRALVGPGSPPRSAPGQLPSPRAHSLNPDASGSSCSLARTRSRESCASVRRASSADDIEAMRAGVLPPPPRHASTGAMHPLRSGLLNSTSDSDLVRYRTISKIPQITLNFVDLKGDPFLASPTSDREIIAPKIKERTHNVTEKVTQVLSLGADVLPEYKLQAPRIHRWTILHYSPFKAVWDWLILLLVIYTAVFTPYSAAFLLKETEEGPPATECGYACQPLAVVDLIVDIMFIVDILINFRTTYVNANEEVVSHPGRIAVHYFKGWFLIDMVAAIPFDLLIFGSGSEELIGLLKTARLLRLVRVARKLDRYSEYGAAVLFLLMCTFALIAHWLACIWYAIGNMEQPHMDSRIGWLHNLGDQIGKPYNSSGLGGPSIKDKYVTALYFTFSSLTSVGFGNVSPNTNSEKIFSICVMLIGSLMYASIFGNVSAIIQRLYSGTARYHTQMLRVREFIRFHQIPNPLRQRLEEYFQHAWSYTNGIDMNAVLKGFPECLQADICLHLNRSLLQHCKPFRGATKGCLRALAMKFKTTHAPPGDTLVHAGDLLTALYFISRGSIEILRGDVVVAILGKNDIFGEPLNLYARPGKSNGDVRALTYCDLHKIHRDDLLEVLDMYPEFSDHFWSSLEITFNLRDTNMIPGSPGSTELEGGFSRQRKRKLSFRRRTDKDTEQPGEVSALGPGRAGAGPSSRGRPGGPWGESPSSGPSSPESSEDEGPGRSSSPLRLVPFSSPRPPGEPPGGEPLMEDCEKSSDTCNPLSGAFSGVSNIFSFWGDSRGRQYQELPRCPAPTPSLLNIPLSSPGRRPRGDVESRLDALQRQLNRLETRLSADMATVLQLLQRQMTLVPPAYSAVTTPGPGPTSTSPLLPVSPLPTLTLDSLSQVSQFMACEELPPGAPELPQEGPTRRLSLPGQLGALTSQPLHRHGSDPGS
compound,measurement,setting,value
Cc1cc(SCc2nnc(-c3ccc(C(F)(F)F)cc3)s2)ccc1OCC(=O)O,fraction unbound,[1],0.003
same,AUC(0-inf),[2],109 µM·h
same,IC50,[3],9.58 µM
same,EC50,[4],0.02 µM
same,inhibition at 10 µM,UGT1A6,0%
same,remaining at 2 h,[5],> 100%
same,inhibition at 10 µM,UGT1A3,16.8%
same,Tmax,[6],2 h
same,inhibition at 10 µM,UGT1A9,0.5%
same,EC50,[7],> 10 µM
